Measured values as given in patent publication US9447157B2, “Nitration shielding peptides and methods of use thereof” (Augusta University Research Institute, Inc., priority 2013, dated 2016).

Test system: Pulmonary artery smooth muscle cells (PASMC)
Test: PASMC phenotype markers (Western blot, immunocytochemistry)
Assay type: cell-based, lamb
Details: SIN-1 500 μM 48 h
Method: Cells were prepared as previously described (Sud, N., et al., American Journal of Physiology 293, L1444-1453 (2007); Sharma, S., et al., American Journal of Physiology 294, L46-56 (2008)). Briefly, the cellular protein extracts were prepared by homogenizing the cells in lysis buffer (50 mM Tris-HCl, pH 7.6, 0.5% Triton X-100, and 20% glycerol) containing Halt protease inhibitor cocktail (Pierce, Rockford, Ill.). The extracts were then clarified by centrifugation (20,000 g for 20 min at 4° C.). The supernatant fractions were assayed for protein concentration using the Bio-Rad DC Protein Assay (Bio-Rad Laboratories, Hercules, Calif.) and used for Western blot analysis. Similarly, peripheral lung tissue from the control lambs and the lambs with pulmonary hypertension secondary to increased pulmonary blood flow (shunt) was prepared as described earlier (Aggarwal, S., et al., Journal of Cellular Physiology (2011)). Cell extracts ([…]) were resolved using 4-20% Tris-SDS-Hepes PAGE, electrophoretically transferred to Immuno-Blot™ PVDF membrane (Bio-Rad Laboratories, Hercules, Calif.), and then blocked with 5% nonfat dry milk in Tris buffered saline. The membranes were then probed with antibodies against PKG-1α (1:500 dilution), anti-nitrotyrosine 247-PKG-1α (1:500), Calponin-1 (1:500 dilution), Vimentin (1:500 dilution), or MYH (1:500 dilution). Reactive bands were visualized using chemi-luminescence (Pierce Laboratories, Rockford, Ill.) on a Kodak 440CF image station. The band intensity was quantified using Kodak 1D image processing software. The protein expression was normalized by re-probing with anti β-actin (1:2000).
Semi-confluent PASMC grown on a coverslip in a 6-well plate were transfected with a mammalian expression plasmid containing either a wild-type (WT)- or Y247F-PKG-1α cDNA. After 20 h, the cells were serum starved (1% FBS) for 4 h then exposed or not to SIN-1 (500 μM) for 48 h. The cells were washed with PBS, methanol fixed (5 min), and permeabilized in 0.1% PBS-Tween (20 min). […] The cells were rinsed 3× with PBS, and the coverslips were mounted on the slides with ProLong Gold Antifade and analyzed with the use of a Nikon Eclipse TE 300 inverted fluorescent microscope with a 60× oil objective and a Hamamatsu digital camera.
To assess the effect of nitration on pulmonary arterial smooth muscle cell (PASMC) phenotype, PASMC were transiently transfected with expression plasmids containing WT-PKG-1α, Y247F-PKG-1α, or PDEST40 (as a control) for 20 h. Cells were then exposed or not to SIN-1 (500 μM, 48 h) and the effect on synthetic and contractile markers determined. The levels of myosin heavy chain (MYH, FIG. 18A), Calponin-1 (FIG. 18B), and Vimentin (FIG. 18C) were determined. […]

3-morpholinosydnonimine N-ethylcarbamide [SIN-1]
PCNA staining (WT-PKG-1α expressing PASMC): increased
SM-22α expression (WT-PKG-1α expressing PASMC): attenuated
Expression of contractile markers MYH and Calponin-1 (WT-PKG-1α transfected PASMC): decreased
Expression of proliferative marker Vimentin (WT-PKG-1α transfected PASMC): increased
